Assay results taken from ChEMBL document CHEMBL1201862, “PubChem BioAssay data set” (2004).
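Briefly, cells in 96-well plates were exposed to five compound concentrations for 48 h, and endpoints were estimated by linear interpolation. GI50: concentration for 50% inhibition of growth.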 Calls of active or inactive are those of the source. No stated cut-off is given here; in the data, active = GI50 up to about 1.1 µM and inactive = higher.

Experiments:
Test in all cases: inhibition of tumour cell growth, NCI panel, 48 h
[1] = system: K562
[2] = system: EKVX
[3] = system: SK-MEL-28
[4] = system: MOLT-4
[5] = system: COLO 205
[6] = system: ACHN
[7] = system: SK-MEL-2
[8] = system: TK-10
[9] = system: UACC-62
[10] = system: SNB-75
[11] = system: NCI/ADR-RES
[12] = system: HOP-62
[13] = system: NCI-H522
[14] = system: MCF7
[15] = system: SF-268
[16] = system: Malme-3M
[17] = system: HL-60
[18] = system: NCI-H226
[19] = system: MDA-N
[20] = system: PC-3

SMILES	GI50 [1]	GI50 [2]	GI50 [3]	GI50 [4]	GI50 [5]	GI50 [6]	GI50 [7]	GI50 [8]	GI50 [9]	GI50 [10]	GI50 [11]	GI50 [12]	GI50 [13]	GI50 [14]	GI50 [15]	GI50 [16]	GI50 [17]	GI50 [18]	GI50 [19]	GI50 [20]
CC(C)CC(Nc1c(O)ccc2ccccc12)C(=O)O (centres undefined)	58.7 µM (inactive)	17.3 µM (inactive)	45.9 µM (inactive)	33 µM (inactive)	> 100 µM (inactive)	22.9 µM (inactive)	17.1 µM (inactive)	39.9 µM (inactive)	23.8 µM (inactive)	32.3 µM (inactive)	37.8 µM (inactive)	83.9 µM (inactive)	26.3 µM (inactive)	41.2 µM (inactive)	24.7 µM (inactive)	15.2 µM (inactive)	34.2 µM (inactive)	20 µM (inactive)	–	–
N=c1oc2ccc3ccccc3c2cc1C(N)=O	–	–	44.5 µM (inactive)	48.6 µM (inactive)	48.6 µM (inactive)	24.9 µM (inactive)	19.4 µM (inactive)	–	28 µM (inactive)	71.9 µM (inactive)	35.5 µM (inactive)	48.3 µM (inactive)	–	–	31.4 µM (inactive)	–	39.2 µM (inactive)	15.3 µM (inactive)	37.1 µM (inactive)	18.7 µM (inactive)
Cc1ccc(-c2nc3n(c2/C=N\N=C(N)N)CCS3)cc1	19.8 µM (inactive)	16 µM (inactive)	15.7 µM (inactive)	45.8 µM (inactive)	14.5 µM (inactive)	15 µM (inactive)	12.9 µM (inactive)	19 µM (inactive)	18.1 µM (inactive)	10.9 µM (inactive)	29.9 µM (inactive)	15 µM (inactive)	2.79 µM (inactive)	–	14.9 µM (inactive)	17.3 µM (inactive)	33.3 µM (inactive)	–	–	15 µM (inactive)
COC(=O)C(=O)C1(CCC(C)=O)c2ccccc2-c2c(C)ccc(C)c21 (centres undefined)	30.1 µM (inactive)	31.4 µM (inactive)	> 100 µM (inactive)	23.1 µM (inactive)	34.7 µM (inactive)	46.7 µM (inactive)	40.6 µM (inactive)	39.6 µM (inactive)	7.53 µM (inactive)	53 µM (inactive)	–	53 µM (inactive)	33.3 µM (inactive)	–	52.2 µM (inactive)	40.4 µM (inactive)	10.3 µM (inactive)	> 100 µM (inactive)	–	–
COc1cccc(C=O)c1C(=O)c1cc(O)ccc1O	> 10 µM (inactive)	18.5 µM (inactive)	34.1 µM (inactive)	3.13 µM (inactive)	18.1 µM (inactive)	17.6 µM (inactive)	> 100 µM (inactive)	29.6 µM (inactive)	54.8 µM (inactive)	> 95.3 µM (inactive)	–	> 100 µM (inactive)	> 10 µM (inactive)	–	> 40 µM (inactive)	20.4 µM (inactive)	9.62 µM (inactive)	> 100 µM (inactive)	–	–
O=C1/C(=N\NC(=S)Nc2ccc(Cl)cc2)c2cc([N+](=O)[O-])ccc2N1CN1CCOCC1	–	–	10.9 µM (inactive)	0.655 µM (active)	13.2 µM (inactive)	4.73 µM (inactive)	13.2 µM (inactive)	12.2 µM (inactive)	5.31 µM (inactive)	12.8 µM (inactive)	2.2 µM (inactive)	< 0.01 µM (active)	6.79 µM (inactive)	5.24 µM (inactive)	4.39 µM (inactive)	6.17 µM (inactive)	0.502 µM (active)	4.81 µM (inactive)	–	10.2 µM (inactive)
COc1cc2c(c(OC)c1)C(C)=NC(C)C2 (centres undefined)	> 100 µM (inactive)	> 100 µM (inactive)	> 100 µM (inactive)	> 100 µM (inactive)	> 100 µM (inactive)	> 100 µM (inactive)	–	> 100 µM (inactive)	> 100 µM (inactive)	–	–	> 100 µM (inactive)	76.7 µM (inactive)	> 100 µM (inactive)	> 100 µM (inactive)	> 100 µM (inactive)	> 100 µM (inactive)	> 100 µM (inactive)	> 100 µM (inactive)	> 100 µM (inactive)
O=S1(=O)OC(c2ccc(O)cc2)(c2ccc(O)cc2)c2ccccc21 [PHENOLSULFONPHTHALEIN]	> 100 µM (inactive)	> 100 µM (inactive)	> 100 µM (inactive)	> 100 µM (inactive)	> 100 µM (inactive)	> 100 µM (inactive)	> 100 µM (inactive)	> 100 µM (inactive)	> 100 µM (inactive)	> 100 µM (inactive)	> 100 µM (inactive)	> 100 µM (inactive)	> 100 µM (inactive)	> 100 µM (inactive)	> 100 µM (inactive)	> 100 µM (inactive)	> 100 µM (inactive)	> 100 µM (inactive)	–	> 100 µM (inactive)
